Measured values published in paper PMC11489133, “Obicetrapib exhibits favorable physiochemical and pharmacokinetic properties compared to previous cholesteryl ester transfer protein inhibitors: An integrated summary of results from non‐human primate studies and clinical trials” (Pharmacology Research & Perspectives, 2024).
Where two headings read alike, the source gives them in different places.

How the values were obtained:
[1] = 39-week oral (gavage) toxicity/toxicokinetic study with 13-week treatment-free recovery period in cynomolgus monkeys; type: in vivo, cynomolgus monkeys (Macaca fascicularis); conditions: for AUC(0–24) / Cmax / AUC(0-t): mean; for Rac AUC(0–24 h) (accumulation ratio) / Rac C max (accumulation ratio): Week 39 / Day 1; for concentration at 13 weeks after last dose / half-life / t max / Cmax / AUC(0-t): cynomolgus monkey; for concentration at 13 weeks after last dose: oral, after 13‐week treatment‐free period, all four recovery monkeys; for half-life / t max / Cmax / AUC(0-t): plasma, po; for AUC(0-t): read-out: AUC(0–24) (converted)
Description: CETP is present and active in non‐human primates, rabbits, and hamsters, but is absent in most other animal species, including mice, rats, and dogs.[2], [31], [32] A non‐human primate study was conducted using cynomolgus monkeys (Macaca fascicularis) to evaluate the toxicity of obicetrapib (TA‐8995), following twice daily (b.i.d.), six h apart, oral (gavage) administration to the monkey for 39 weeks (Clinical Study Report [CSR], NewAmsterdam Pharma). The monkey was selected as the species for this study because the CETP structure in monkeys is very similar to the structure of human CETP.[33] The cynomolgus monkeys were obtained from Noveprim Ltd, Mauritius. The monkeys were approximately 26–30 months old when obtained for the study and 28–32 months old at the start of dosing. On arrival at the study site, the weight range of the monkeys was 2.4–3.3 kg. Individual body weights were recorded once weekly (including Day 1 before the start of dosing) from time of allocation and on the day of necropsy. At the start of dosing, the weight range of the monkeys was 2.4–3.3 kg and 2.5–3.9 kg for the females and males, respectively. The weight range of the monkeys at the end of the dosing period (Week 39) was 3.0–4.8 kg and 3.0–5.2 kg for females and males, respectively.
The weight range of the recovery monkeys (n = 8) at Week 14 of the recovery period, prior to necropsy, was 3.5–5.2 kg and 3.7–4.9 kg for the females and males, respectively.
The animals were housed in pens that conform to the “Code of practice for the housing and care of animals used in scientific procedures” in rooms exclusive to the study. The rooms were air‐conditioned to provide 15–20 air changes/hour, and the temperature and relative humidity ranges were maintained at 21–25°C and 40–70%, respectively. Fluorescent lighting was controlled automatically to give a cycle of 12 h light and 12 h dark, with the exception of when experimental procedures dictated otherwise. A number of strategies were used for environmental enrichment for the monkeys, such as the provision of toys (e.g., balls, inert nylon chews), swings, and foraging materials. The monkeys were offered ad libitum water, 100 g of SQC Mazuri Primate Diet (Special Diets Services Ltd., Witham, UK), and a 25 g Bonio biscuit (Spillers) each day. When available, the diet was supplemented twice daily with fresh fruit, fresh vegetables, forage mix, peanuts, raisins, or sunflower seeds. The study was conducted in accordance with the requirements of the Animals (Scientific Procedures) Act 1986 and a local ethical review was maintained (CSR, NewAmsterdam Pharma).
The monkeys (n = 40; 20 of each sex) were allocated into four groups (based on existing social groupings) to receive treatment for 39 weeks: a control group (no treatment), a low‐dose group (10 mg/kg/day [5 mg/kg/b.i.d.] of obicetrapib), an intermediate‐dose group (20 mg/kg/day [10 mg/kg/b.i.d.] of obicetrapib), and a high‐dose group (50 mg/kg/day [25 mg/kg/b.i.d.] of obicetrapib). Four monkeys (two of each sex) from the 50 mg/kg/day dose group and four (two of each sex) from the control group were followed for an extended treatment‐free period of 13 weeks (recovery period). Obicetrapib was dosed as a suspension in 0.5% sodium carboxylmethyl cellulose solution and 0.1% polyoxyethylene hydrogenated castor oil. Toxicokinetic parameters were examined after 39 weeks of dosing. Blood samples for toxicokinetic evaluation were taken from all monkeys in the study on Day 1 and Day 273 (Week 39) pre‐dose and at 0.5, 1, 2, 3, 4, 6, 7.5, 9, 10, 12, and 24 h after dosing. Blood samples for toxicokinetic assessments were taken from the recovery animals on multiple days during the treatment‐free period at the same time intervals as the 24‐hour samples in Week 39. Delayed onset toxicity and/or reversibility of toxicity were examined during the 13‐week treatment‐free period. […]

[2] = cited from earlier work
[3] = female, 10 mg/kg/day, Day 1, 10 mg/kg/d, females
[4] = female, 20 mg/kg/day, Day 1, 20 mg/kg/d, females
[5] = female, 50 mg/kg/day, Day 1, 50 mg/kg/d, females
[6] = male, 10 mg/kg/day, Day 1, 10 mg/kg/d, males
[7] = male, 20 mg/kg/day, Day 1, 20 mg/kg/d, males
[8] = male, 50 mg/kg/day, Day 1, 50 mg/kg/d, males

CCOC(=O)N1c2ccc(C(F)(F)F)cc2C(N(Cc2cc(C(F)(F)F)cc(C(F)(F)F)c2)c2ncc(OCCCC(=O)O)cn2)CC1CC (centres unmarked) [Obicetrapib]
AUC(0–24) ([1]; Day 273 (Week 39), 10 mg/kg/d, females): 41 300 ngh/mL | AUC(0–24) ([1]; Day 273 (Week 39), 10 mg/kg/d, males): 40 300 ngh/mL | AUC(0–24) ([1]; Day 273 (Week 39), 20 mg/kg/d, females): 54 000 ngh/mL | AUC(0–24) ([1]; Day 273 (Week 39), 20 mg/kg/d, males): 65 200 ngh/mL | AUC(0–24) ([1]; Day 273 (Week 39), 50 mg/kg/d, females): 103 000 ngh/mL | AUC(0–24) ([1]; Day 273 (Week 39), 50 mg/kg/d, males): 111 000 ngh/mL | Rac AUC(0–24 h) (accumulation ratio) ([1]; 10 mg/kg/d, females, mean (SD)): 1.4 (0.2) | Rac C max (accumulation ratio) ([1]; 10 mg/kg/d, females, mean (SD)): 1.0 (0.2) | Rac AUC(0–24 h) (accumulation ratio) ([1]; 10 mg/kg/d, males, mean (SD)): 1.4 (0.3) | Rac C max (accumulation ratio) ([1]; 10 mg/kg/d, males, mean (SD)): 1.4 (0.1) | Rac AUC(0–24 h) (accumulation ratio) ([1]; 20 mg/kg/d, females, mean (SD)): 1.1 (0.2) | Rac C max (accumulation ratio) ([1]; 20 mg/kg/d, females, mean (SD)): 1.1 (0.2) | Rac AUC(0–24 h) (accumulation ratio) ([1]; 20 mg/kg/d, males, mean (SD)): 1.4 (0.2) | Rac C max (accumulation ratio) ([1]; 20 mg/kg/d, males, mean (SD)): 1.4 (0.3) | Rac AUC(0–24 h) (accumulation ratio) ([1]; 50 mg/kg/d, females, mean (SD)): 0.9 (0.2) | Rac C max (accumulation ratio) ([1]; 50 mg/kg/d, females, mean (SD)): 0.8 (0.1) | Rac AUC(0–24 h) (accumulation ratio) ([1]; 50 mg/kg/d, males, mean (SD)): 1.0 (0.1) | Rac C max (accumulation ratio) ([1]; 50 mg/kg/d, males, mean (SD)): 1.0 (0.2) | concentration at 13 weeks after last dose ([1]; both sexes, fat homogenate, 50 mg/kg/day, read-out: obicetrapib in fat homogenate (below LLOQ)): < 0.5 ng/mL | concentration at 13 weeks after last dose ([1]; both sexes, 50 mg/kg/day, perirenal white fat, read-out: obicetrapib in adipose tissue (below LLOQ), per g of fat): < 10 ng/g | half-life ([1]; both sexes, Day 1, read-out: Apparent t 1/2 for the individual monkeys): 4.8 to 10.5 h | half-life ([1]; both sexes, Day 1, read-out: mean t 1/2, range over groups): 5.8 to 7.2 h | half-life ([1]; both sexes, Day 273, read-out: mean t 1/2, range over groups): 6.4 to 12.1 h | half-life ([1]; both sexes, Week 39, with one exception, read-out: Apparent t 1/2 for the individual monkeys): 5.3 to 18.3 h | elimination of obicetrapib from plasma ([1]; end of 13‐week treatment‐free period, 50 mg/kg/day, both males and one female): complete | obicetrapib detected in plasma, % of the observed maximum concentration ([1]; end of 13‐week treatment‐free period, 50 mg/kg/day, one recovery female): 0.25% | time within which the mean C max was achieved ([1]; end of treatment, all of the monkeys, 3 h after the second dose): ≤ 9 h | t max ([1]; female, 10 mg/kg/day, Day 1, 10 mg/kg/d, females, mean (SD)): 5.9 h | half-life ([1]; female, 10 mg/kg/day, Day 1, 10 mg/kg/d, females, mean (SD), read-out: t ½ (elimination half‐life) (converted)): 7.2 h | Cmax ([1]; female, 10 mg/kg/day, Day 273 (Week 39), 10 mg/kg/d, females): 3390 ng/mL | t max ([1]; female, 10 mg/kg/day, Day 273 (Week 39), 10 mg/kg/d, females, mean (SD)): 4.8 h | half-life ([1]; female, 10 mg/kg/day, Day 273 (Week 39), 10 mg/kg/d, females, mean (SD), read-out: t ½ (elimination half‐life) (converted)): 12.1 h | Cmax [1, 3]: 3300 ng/mL | AUC(0-t) [1, 3]: 29800 ng·h/mL | t max ([1]; female, 20 mg/kg/day, Day 1, 20 mg/kg/d, females, mean (SD)): 4.8 h | half-life ([1]; female, 20 mg/kg/day, Day 1, 20 mg/kg/d, females, mean (SD), read-out: t ½ (elimination half‐life) (converted)): 5.8 h | Cmax ([1]; female, 20 mg/kg/day, Day 273 (Week 39), 20 mg/kg/d, females): 5160 ng/mL | t max ([1]; female, 20 mg/kg/day, Day 273 (Week 39), 20 mg/kg/d, females, mean (SD)): 4.8 h | half-life ([1]; female, 20 mg/kg/day, Day 273 (Week 39), 20 mg/kg/d, females, mean (SD), read-out: t ½ (elimination half‐life) (converted)): 8.8 h | Cmax [1, 4]: 4980 ng/mL | AUC(0-t) [1, 4]: 47800 ng·h/mL | half-life ([1]; female, 50 mg/kg/day, 50 mg/kg/day group, female with detectable concentrations 13 weeks after the last dose, read-out: t ½ of one outlier female (converted)): 516 h | t max ([1]; female, 50 mg/kg/day, Day 1, 50 mg/kg/d, females, mean (SD)): 6.2 h | half-life ([1]; female, 50 mg/kg/day, Day 1, 50 mg/kg/d, females, mean (SD), read-out: t ½ (elimination half‐life) (converted)): 6.8 h | Cmax ([1]; female, 50 mg/kg/day, Day 273 (Week 39), 50 mg/kg/d, females): 8480 ng/mL | t max ([1]; female, 50 mg/kg/day, Day 273 (Week 39), 50 mg/kg/d, females, mean (SD)): 6.6 h | half-life ([1]; female, 50 mg/kg/day, Day 273 (Week 39), 50 mg/kg/d, females, mean (SD), does not include data from one outlier, read-out: t ½ (elimination half‐life) (converted)): 7.4 h | half-life ([1]; female, 50 mg/kg/day, females in the high dose group (50 mg/kg/day), Week 39, read-out: mean t 1/2 including the outlier (converted)): 109 h | Cmax [1, 5]: 11600 ng/mL | AUC(0-t) [1, 5]: 118000 ng·h/mL | t max ([1]; male, 10 mg/kg/day, Day 1, 10 mg/kg/d, males, mean (SD)): 5 h | half-life ([1]; male, 10 mg/kg/day, Day 1, 10 mg/kg/d, males, mean (SD), read-out: t ½ (elimination half‐life) (converted)): 6.8 h | Cmax ([1]; male, 10 mg/kg/day, Day 273 (Week 39), 10 mg/kg/d, males): 3800 ng/mL | t max ([1]; male, 10 mg/kg/day, Day 273 (Week 39), 10 mg/kg/d, males, mean (SD)): 2 h | half-life ([1]; male, 10 mg/kg/day, Day 273 (Week 39), 10 mg/kg/d, males, mean (SD), read-out: t ½ (elimination half‐life) (converted)): 11 h | Cmax [1, 6]: 2800 ng/mL | AUC(0-t) [1, 6]: 29300 ng·h/mL | t max ([1]; male, 20 mg/kg/day, Day 1, 20 mg/kg/d, males, mean (SD)): 2.5 h | half-life ([1]; male, 20 mg/kg/day, Day 1, 20 mg/kg/d, males, mean (SD), read-out: t ½ (elimination half‐life) (converted)): 6.9 h | Cmax ([1]; male, 20 mg/kg/day, Day 273 (Week 39), 20 mg/kg/d, males): 6410 ng/mL | t max ([1]; male, 20 mg/kg/day, Day 273 (Week 39), 20 mg/kg/d, males, mean (SD)): 2.3 h | half-life ([1]; male, 20 mg/kg/day, Day 273 (Week 39), 20 mg/kg/d, males, mean (SD), read-out: t ½ (elimination half‐life) (converted)): 8.1 h | Cmax [1, 7]: 4740 ng/mL | AUC(0-t) [1, 7]: 46600 ng·h/mL | t max ([1]; male, 50 mg/kg/day, Day 1, 50 mg/kg/d, males, mean (SD)): 7.6 h | half-life ([1]; male, 50 mg/kg/day, Day 1, 50 mg/kg/d, males, mean (SD), read-out: t ½ (elimination half‐life) (converted)): 6.8 h | Cmax ([1]; male, 50 mg/kg/day, Day 273 (Week 39), 50 mg/kg/d, males): 9210 ng/mL | t max ([1]; male, 50 mg/kg/day, Day 273 (Week 39), 50 mg/kg/d, males, mean (SD)): 8.5 h | half-life ([1]; male, 50 mg/kg/day, Day 273 (Week 39), 50 mg/kg/d, males, mean (SD), read-out: t ½ (elimination half‐life) (converted)): 6.4 h | Cmax [1, 8]: 9600 ng/mL | AUC(0-t) [1, 8]: 118000 ng·h/mL | mean body weights ([1]; recovery period, monkeys treated at 50 mg/kg/day (25 mg/kg/b.i.d.)): comparable with the control monkeys | Group mean body weights ([1]; treated monkeys, dosing period): comparable with the control monkeys | PSA [2]: 105 Å^2
